Active and inactive are the calls of the source. No rule for the calls is given here.
System: rodent lifetime carcinogenesis bioassay, tumor incidence TD50
Test: chronic cancer bioassays in animals – CPDB, compiled studies (AID 1745844)

## N=C1C=CC(=C(c2ccc(N)cc2)c2ccc(N)cc2)C=C1
hamster, strain Syrian Golden, females, by gavage, site: any site (literature study), lesion: several types, types named in the paper, dosed 84 weeks, study length 84 weeks
  carcinogen call: negative (inactive)
hamster, strain Syrian Golden, males, by gavage, site: any site (literature study), lesion: several types, types named in the paper, dosed 84 weeks, study length 84 weeks
  carcinogen call: negative (inactive)
mouse, strain B6C3F1, females, in feed, site: Harderian gland, lesion: adenoma, NOS + carcinoma, NOS + cystadenoma, NOS, dosed 103 weeks, study length 105 weeks
  TD50: 388 mg/kg/day
mouse, strain B6C3F1, females, in feed, site: Harderian gland, lesion: adenoma, NOS + cystadenoma, NOS, dosed 103 weeks, study length 105 weeks
  TD50: 316 mg/kg/day
mouse, strain B6C3F1, females, in feed, site: Harderian gland, lesion: adenoma, dosed 103 weeks, study length 105 weeks
  TD50: 548 mg/kg/day
mouse, strain B6C3F1, females, in feed, site: adrenal gland + liver, lesion: pheochromocytoma + pheochromocytoma, malignant + hepatocellular carcinoma, dosed 103 weeks, study length 105 weeks
  TD50: 28.8 mg/kg/day
mouse, strain B6C3F1, females, in feed, site: adrenal gland, lesion: pheochromocytoma + pheochromocytoma, malignant, dosed 103 weeks, study length 105 weeks
  TD50: 90.6 mg/kg/day
mouse, strain B6C3F1, females, in feed, site: all sites, lesion: malignant lymphoma, histiocytic type + malignant lymphoma, mixed type + malignant lymphoma, lymphocytic type + malignant lymph, dosed 103 weeks, study length 105 weeks
  TD50: 62.2 mg/kg/day
mouse, strain B6C3F1, females, in feed, site: all sites, lesion: malignant lymphoma, histiocytic type, dosed 103 weeks, study length 105 weeks
  TD50: 380 mg/kg/day
mouse, strain B6C3F1, females, in feed, site: all sites, lesion: malignant lymphoma, lymphocytic type, dosed 103 weeks, study length 105 weeks
  TD50: 151 mg/kg/day
mouse, strain B6C3F1, females, in feed, site: any site (literature study), lesion: several types, types named in the paper, dosed 103 weeks, study length 105 weeks
  TD50: 23.4 mg/kg/day
mouse, strain B6C3F1, females, in feed, site: liver, lesion: hepatocellular adenoma + hepatocellular carcinoma + neoplastic nodule, dosed 103 weeks, study length 105 weeks
  TD50: 20.3 mg/kg/day
mouse, strain B6C3F1, females, in feed, site: liver, lesion: hepatocellular adenoma + hepatocellular carcinoma, dosed 103 weeks, study length 105 weeks
  TD50: 20.3 mg/kg/day
mouse, strain B6C3F1, females, in feed, site: liver, lesion: hepatocellular adenoma, dosed 103 weeks, study length 105 weeks
  TD50: 35.9 mg/kg/day
mouse, strain B6C3F1, females, in feed, site: liver, lesion: hepatocellular carcinoma, dosed 103 weeks, study length 105 weeks
  TD50: 32.3 mg/kg/day
mouse, strain B6C3F1, females, in feed, site: lung, lesion: alveolar/bronchiolar adenoma + alveolar/bronchiolar carcinoma, dosed 103 weeks, study length 105 weeks
  TD50: 302 mg/kg/day
mouse, strain B6C3F1, females, in feed, site: lung, lesion: alveolar/bronchiolar adenoma, dosed 103 weeks, study length 105 weeks
  TD50: 326 mg/kg/day
mouse, strain B6C3F1, males, in feed, site: all sites, lesion: malignant lymphoma, mixed type, dosed 103 weeks, study length 104 weeks
  TD50: 610 mg/kg/day
mouse, strain B6C3F1, males, in feed, site: any site (literature study), lesion: several types, types named in the paper, dosed 103 weeks, study length 104 weeks
  TD50: 222 mg/kg/day
mouse, strain B6C3F1, males, in feed, site: liver, lesion: hepatocellular adenoma + hepatocellular carcinoma + neoplastic nodule, dosed 103 weeks, study length 104 weeks
  TD50: 116 mg/kg/day
mouse, strain B6C3F1, males, in feed, site: liver, lesion: hepatocellular adenoma + hepatocellular carcinoma, dosed 103 weeks, study length 104 weeks
  TD50: 116 mg/kg/day
mouse, strain B6C3F1, males, in feed, site: liver, lesion: hepatocellular carcinoma, dosed 103 weeks, study length 104 weeks
  TD50: 127 mg/kg/day
rat, strain Fischer 344, females, in feed, site: Zymbal's gland, lesion: carcinoma, NOS, dosed 103 weeks, study length 104 weeks
  TD50: 190 mg/kg/day
rat, strain Fischer 344, females, in feed, site: any site (literature study), lesion: several types, types named in the paper, dosed 103 weeks, study length 104 weeks
  TD50: 17.8 mg/kg/day
rat, strain Fischer 344, females, in feed, site: liver, lesion: hepatocellular adenoma + hepatocellular carcinoma + neoplastic nodule, dosed 103 weeks, study length 104 weeks
  TD50: 189 mg/kg/day
rat, strain Fischer 344, females, in feed, site: liver, lesion: hepatocellular carcinoma + neoplastic nodule, dosed 103 weeks, study length 104 weeks
  TD50: 189 mg/kg/day
rat, strain Fischer 344, females, in feed, site: mammary gland, lesion: adenocarcinoma, NOS + adenoma, NOS + fibroadenoma, dosed 103 weeks, study length 104 weeks
  TD50: 25.4 mg/kg/day
rat, strain Fischer 344, females, in feed, site: mammary gland, lesion: adenocarcinoma, NOS + adenoma, NOS, dosed 103 weeks, study length 104 weeks
  TD50: 156 mg/kg/day
rat, strain Fischer 344, females, in feed, site: mammary gland, lesion: adenocarcinoma, NOS, dosed 103 weeks, study length 104 weeks
  TD50: 232 mg/kg/day
rat, strain Fischer 344, females, in feed, site: mammary gland, lesion: fibroadenoma, dosed 103 weeks, study length 104 weeks
  TD50: 27.9 mg/kg/day
rat, strain Fischer 344, females, in feed, site: subcutaneous tissue + thyroid gland + Zymbal's gland, lesion: fibroma + follicular-cell adenoma + follicular-cell carcinoma + carcinoma, NOS, dosed 103 weeks, study length 104 weeks
  TD50: 32.2 mg/kg/day
rat, strain Fischer 344, females, in feed, site: subcutaneous tissue, lesion: fibroma, dosed 103 weeks, study length 104 weeks
  TD50: 44.5 mg/kg/day
rat, strain Fischer 344, females, in feed, site: subcutaneous tissue, lesion: fibrosarcoma + fibroma + sarcoma, NOS, dosed 103 weeks, study length 104 weeks
  TD50: 40.9 mg/kg/day
rat, strain Fischer 344, females, in feed, site: subcutaneous tissue, lesion: fibrosarcoma + fibroma, dosed 103 weeks, study length 104 weeks
  TD50: 42.8 mg/kg/day
rat, strain Fischer 344, females, in feed, site: thyroid gland, lesion: follicular-cell adenoma + follicular-cell carcinoma, dosed 103 weeks, study length 104 weeks
  TD50: 154 mg/kg/day
rat, strain Fischer 344, females, in feed, site: thyroid gland, lesion: follicular-cell adenoma, dosed 103 weeks, study length 104 weeks
  TD50: 318 mg/kg/day
rat, strain Fischer 344, females, in feed, site: uterus, lesion: endometrial stromal sarcoma, dosed 103 weeks, study length 104 weeks
  TD50: 133 mg/kg/day
rat, strain Fischer 344, males, in feed, site: Zymbal's gland, lesion: carcinoma, NOS, dosed 103 weeks, study length 104 weeks
  TD50: 124 mg/kg/day
rat, strain Fischer 344, males, in feed, site: any site (literature study), lesion: several types, types named in the paper, dosed 103 weeks, study length 104 weeks
  TD50: 15.7 mg/kg/day
rat, strain Fischer 344, males, in feed, site: body cavities + multiple sites + multiple organs + tunica vaginalis, lesion: mesothelioma, NOS + mesothelioma, malignant, dosed 103 weeks, study length 104 weeks
  TD50: 184 mg/kg/day
rat, strain Fischer 344, males, in feed, site: liver + skin + subcutaneous tissue + thyroid gland + Zymbal's gland, lesion: hepatocellular carcinoma + sebaceous adenoma + squamous-cell carcinoma + trichoepithelioma + fibroma + follicular-cell adenoma + fol, dosed 103 weeks, study length 104 weeks
  TD50: 21.2 mg/kg/day
rat, strain Fischer 344, males, in feed, site: liver, lesion: bile duct adenoma + bile duct carcinoma, dosed 103 weeks, study length 104 weeks
  TD50: 557 mg/kg/day
rat, strain Fischer 344, males, in feed, site: liver, lesion: hepatocellular adenoma + hepatocellular carcinoma + neoplastic nodule, dosed 103 weeks, study length 104 weeks
  TD50: 41.5 mg/kg/day
rat, strain Fischer 344, males, in feed, site: liver, lesion: hepatocellular carcinoma + neoplastic nodule, dosed 103 weeks, study length 104 weeks
  TD50: 41.5 mg/kg/day
rat, strain Fischer 344, males, in feed, site: liver, lesion: hepatocellular carcinoma, dosed 103 weeks, study length 104 weeks
  TD50: 140 mg/kg/day
rat, strain Fischer 344, males, in feed, site: liver, lesion: neoplastic nodule, dosed 103 weeks, study length 104 weeks
  TD50: 62.2 mg/kg/day
rat, strain Fischer 344, males, in feed, site: lung, lesion: alveolar/bronchiolar adenoma + alveolar/bronchiolar carcinoma, dosed 103 weeks, study length 104 weeks
  TD50: 254 mg/kg/day
rat, strain Fischer 344, males, in feed, site: lung, lesion: alveolar/bronchiolar adenoma, dosed 103 weeks, study length 104 weeks
  TD50: 281 mg/kg/day
rat, strain Fischer 344, males, in feed, site: pancreatic islets, lesion: islet-cell adenoma + islet-cell carcinoma, dosed 103 weeks, study length 104 weeks
  TD50: 152 mg/kg/day
rat, strain Fischer 344, males, in feed, site: pancreatic islets, lesion: islet-cell carcinoma, dosed 103 weeks, study length 104 weeks
  TD50: 252 mg/kg/day
rat, strain Fischer 344, males, in feed, site: skin, lesion: basal-cell carcinoma, dosed 103 weeks, study length 104 weeks
  TD50: 385 mg/kg/day
rat, strain Fischer 344, males, in feed, site: skin, lesion: sebaceous adenoma, dosed 103 weeks, study length 104 weeks
  TD50: 424 mg/kg/day
rat, strain Fischer 344, males, in feed, site: skin, lesion: squamous-cell carcinoma + squamous-cell papilloma, dosed 103 weeks, study length 104 weeks
  TD50: 93.8 mg/kg/day
rat, strain Fischer 344, males, in feed, site: skin, lesion: squamous-cell carcinoma, dosed 103 weeks, study length 104 weeks
  TD50: 130 mg/kg/day
rat, strain Fischer 344, males, in feed, site: skin, lesion: trichoepithelioma, dosed 103 weeks, study length 104 weeks
  TD50: 221 mg/kg/day
rat, strain Fischer 344, males, in feed, site: subcutaneous tissue, lesion: fibroma, dosed 103 weeks, study length 104 weeks
  TD50: 35.3 mg/kg/day
rat, strain Fischer 344, males, in feed, site: subcutaneous tissue, lesion: fibrosarcoma + fibroma + sarcoma, NOS, dosed 103 weeks, study length 104 weeks
  TD50: 33.4 mg/kg/day
rat, strain Fischer 344, males, in feed, site: subcutaneous tissue, lesion: fibrosarcoma + fibroma, dosed 103 weeks, study length 104 weeks
  TD50: 33 mg/kg/day
rat, strain Fischer 344, males, in feed, site: testis, lesion: interstitial-cell tumor, dosed 103 weeks, study length 104 weeks
  TD50: 15.6 mg/kg/day
rat, strain Fischer 344, males, in feed, site: thyroid gland, lesion: follicular-cell adenoma + follicular-cell carcinoma, dosed 103 weeks, study length 104 weeks
  TD50: 57 mg/kg/day
rat, strain Fischer 344, males, in feed, site: thyroid gland, lesion: follicular-cell adenoma, dosed 103 weeks, study length 104 weeks
  TD50: 176 mg/kg/day
rat, strain Fischer 344, males, in feed, site: thyroid gland, lesion: follicular-cell carcinoma, dosed 103 weeks, study length 104 weeks
  TD50: 73.9 mg/kg/day
rat, strain Sprague-Dawley, females, by gavage, site: any site (literature study), lesion: several types, types named in the paper, dosed 127 weeks, study length 127 weeks
  carcinogen call: negative (inactive)
rat, strain Sprague-Dawley, males, by gavage, site: any site (literature study), lesion: several types, types named in the paper, dosed 124 weeks, study length 124 weeks
  carcinogen call: negative (inactive)

## C=CCN(CC(O)CO)N=O (stereo not drawn)
rat, strain Fischer 344, females, in drinking water, site: esophagus, lesion: carcinoma, dosed 50 weeks, study length 55 weeks
  TD50: 1.13 mg/kg/day
rat, strain Fischer 344, females, in drinking water, site: esophagus, lesion: several types, types named in the paper, dosed 50 weeks, study length 55 weeks
  TD50: 0.825 mg/kg/day
rat, strain Fischer 344, females, in drinking water, site: liver, lesion: neoplastic nodule, dosed 50 weeks, study length 55 weeks
  carcinogen call: negative (inactive)
rat, strain Fischer 344, females, in drinking water, site: nasal cavity, lesion: several types, types named in the paper, dosed 50 weeks, study length 55 weeks
  TD50: 0.972 mg/kg/day
